Read-outs that look alike come from different tables or passages of the source.
Columns and labels:
human recombinant HDAC6 = biological target: T1, human recombinant HDAC6 (Homo sapiens, UniProt Q9UBN7); experiment: HDAC6 enzyme activity inhibition (HDAC Fluorimetric Drug Discovery Kit); format: biochemical
T1 construct: purchased Calbiochem Inc. 382180
T1 sequence (Q9UBN7 1-1215): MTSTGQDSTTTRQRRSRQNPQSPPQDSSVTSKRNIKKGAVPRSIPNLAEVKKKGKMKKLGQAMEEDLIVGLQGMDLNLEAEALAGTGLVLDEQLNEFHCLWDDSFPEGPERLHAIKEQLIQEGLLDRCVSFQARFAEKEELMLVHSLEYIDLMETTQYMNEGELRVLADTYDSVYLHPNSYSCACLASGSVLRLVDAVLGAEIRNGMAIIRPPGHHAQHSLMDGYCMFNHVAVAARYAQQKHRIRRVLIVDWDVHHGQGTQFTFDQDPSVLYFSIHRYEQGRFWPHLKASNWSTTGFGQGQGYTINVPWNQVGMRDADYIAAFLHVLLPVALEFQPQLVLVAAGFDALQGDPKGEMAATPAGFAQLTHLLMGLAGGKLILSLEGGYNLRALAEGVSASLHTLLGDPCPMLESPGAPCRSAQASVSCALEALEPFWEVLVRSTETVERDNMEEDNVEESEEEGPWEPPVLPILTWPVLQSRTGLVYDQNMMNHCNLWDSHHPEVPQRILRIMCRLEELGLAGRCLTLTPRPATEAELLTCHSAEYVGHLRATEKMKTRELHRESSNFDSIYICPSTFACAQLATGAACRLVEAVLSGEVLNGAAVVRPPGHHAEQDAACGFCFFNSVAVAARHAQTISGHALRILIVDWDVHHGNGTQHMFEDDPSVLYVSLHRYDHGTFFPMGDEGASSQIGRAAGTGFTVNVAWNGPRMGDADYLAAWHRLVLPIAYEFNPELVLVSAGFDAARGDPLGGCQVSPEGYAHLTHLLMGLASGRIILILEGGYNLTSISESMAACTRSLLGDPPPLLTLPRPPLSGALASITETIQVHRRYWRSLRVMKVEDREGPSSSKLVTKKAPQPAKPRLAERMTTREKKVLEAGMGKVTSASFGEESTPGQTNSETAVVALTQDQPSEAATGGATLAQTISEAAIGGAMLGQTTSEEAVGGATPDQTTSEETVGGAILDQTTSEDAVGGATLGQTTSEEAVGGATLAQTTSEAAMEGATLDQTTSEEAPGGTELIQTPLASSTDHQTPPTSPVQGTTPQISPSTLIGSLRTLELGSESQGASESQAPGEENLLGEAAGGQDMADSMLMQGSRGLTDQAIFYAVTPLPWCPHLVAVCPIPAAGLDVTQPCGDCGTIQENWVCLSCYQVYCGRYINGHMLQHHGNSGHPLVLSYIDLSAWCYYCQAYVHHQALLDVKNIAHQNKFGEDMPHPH
Summary of the method: (§1)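 Fluorescence from a Fluor de Lys developer step (30 minutes) reports residual deacetylation after a 60-minute, 30° C reaction of […] enzyme with 10 μM substrate and 5-fold compound dilutions.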

human recombinant HDAC1 = biological target: T2, human recombinant HDAC1 (Homo sapiens, UniProt Q13547); experiment: HDAC1 enzyme activity inhibition (HDAC Fluorimetric Drug Discovery Kit); format: biochemical; conditions: read-out: HDAC1
T2 construct: purchased Enzo Life Science, Inc. BML-SE456
Summary of the method: as §1

[1] = human recombinant HDAC6, same protocol as HDAC1
[2] = human recombinant HDAC1, Fluor de Lys substrate, 30° C. 60 minutes
[3] = human recombinant HDAC6, IC50 calculated with GraphPad Prism
[4] = human recombinant HDAC1, IC50 calculated with GraphPad Prism

T2 sequence (Q13547 whole entry): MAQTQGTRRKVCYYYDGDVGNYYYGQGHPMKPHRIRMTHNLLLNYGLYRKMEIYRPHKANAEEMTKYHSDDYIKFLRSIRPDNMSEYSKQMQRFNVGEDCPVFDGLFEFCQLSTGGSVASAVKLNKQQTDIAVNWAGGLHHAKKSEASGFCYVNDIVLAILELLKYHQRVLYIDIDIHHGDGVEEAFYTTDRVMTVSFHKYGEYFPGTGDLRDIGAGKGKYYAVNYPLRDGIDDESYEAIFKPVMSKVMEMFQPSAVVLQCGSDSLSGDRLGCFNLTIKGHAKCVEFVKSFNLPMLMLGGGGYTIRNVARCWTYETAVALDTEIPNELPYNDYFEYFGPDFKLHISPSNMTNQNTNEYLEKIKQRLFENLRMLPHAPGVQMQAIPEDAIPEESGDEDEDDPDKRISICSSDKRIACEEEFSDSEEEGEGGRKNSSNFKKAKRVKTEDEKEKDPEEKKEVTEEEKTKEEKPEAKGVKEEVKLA

Fc1cc(-c2nnc(C(F)F)o2)ccc1Cn1cc(-c2ccc(CN3CCCC3)c(Cl)c2)nn1 [Compound 18713, 2-(4-((4-(3-chloro-4-(pyrrolidin-1-ylmethyl)phenyl)-1H-1,2,3-triazol-1-yl)methyl)-3-fluorophenyl)-5-(difluoromethyl)-1,3,4-oxadiazole]
HDAC6 selectivity (fold) (human recombinant HDAC6; HDAC6 over HDAC1): 685 fold | IC50 (human recombinant HDAC6; [1]): 72.9 nM | IC50 (human recombinant HDAC1; [2]): > 50000 nM

CCN1CCN(Cc2cccc(-c3cn(Cc4ccc(-c5nnc(C(F)F)o5)cc4F)nn3)c2)CC1 [Compound 4407, 2-(difluoromethyl)-5-(4-((4-(3-((4-ethylpiperazin-1-yl)methyl)phenyl)-1H-1,2,3-triazol-1-yl)methyl)-3-fluorophenyl)-1,3,4-oxadiazole]
HDAC6 selectivity (fold) (human recombinant HDAC6; HDAC1 IC50 / HDAC6 IC50): 1259 fold | IC50 (human recombinant HDAC6; [3]): 39.7 nM | IC50 (human recombinant HDAC1; [4]): > 50000 nM

CN1CCc2ccc(-c3cn(Cc4ccc(-c5nnc(C(F)F)o5)cn4)nn3)cc2C1 [Compound 4209, 2-(difluoromethyl)-5-(6-((4-(2-methyl-1,2,3,4-tetrahydroisoquinolin-7-yl)-1H-1,2,3-triazol-1-yl)methyl)pyridin-3-yl)-1,3,4-oxadiazole]
HDAC6 selectivity (fold) (human recombinant HDAC6; HDAC1 IC50 / HDAC6 IC50): 1298 fold | IC50 (human recombinant HDAC6; [3]): 38.5 nM | IC50 (human recombinant HDAC1; [4]): > 50000 nM

Fc1cc(-c2nnc(C(F)F)o2)ccc1Cn1cc(-c2cccc(N3C[C@@H]4C[C@H]3CN4C3CCC3)c2)nn1 [Compound 4319, 2-(4-((4-(3-((1S, 4S)-5-cyclobutyl-2,5-diazabicyclo[2.2.1]heptan-2-yl)phenyl)-1H-1,2,3-triazol-1-yl)methyl)-3-fluorophenyl)-5-(difluoromethyl)-1,3,4-oxadiazole]
HDAC6 selectivity (fold) (human recombinant HDAC6; HDAC1 IC50 / HDAC6 IC50): 1470 fold | IC50 (human recombinant HDAC6; [3]): 34 nM | IC50 (human recombinant HDAC1; [4]): > 50000 nM

FC(F)c1nnc(-c2ccc(Cn3cc(C4CCCN(C5COC5)C4)nn3)nc2)o1 (stereo not drawn) [Compound 4003]
HDAC6 selectivity (fold) (human recombinant HDAC6; HDAC1 IC50 / HDAC6 IC50): 103 fold | IC50 (human recombinant HDAC6; [3]): 484 nM | IC50 (human recombinant HDAC1; [4]): > 50000 nM

OCc1c(-c2ccccc2)nnn1Cc1ccc(-c2nnc(C(F)F)o2)cn1 [Compound 4478, (1-((5-(5-(difluoromethyl)-1,3,4-oxadiazol-2-yl)pyridin-2-yl)methyl)-4-phenyl-1H-1,2,3-triazol-5-yl)methanol]
HDAC6 selectivity (fold) (human recombinant HDAC6; HDAC1 IC50 / HDAC6 IC50): 437 fold | IC50 (human recombinant HDAC6; [3]): 114 nM | IC50 (human recombinant HDAC1; [4]): > 50000 nM

FC(F)c1nnc(-c2ccc(Cn3cc(-c4ccncc4)nn3)nc2)o1 [Compound 3837, 2-(difluoromethyl)-5-(6-((4-(pyridin-4-yl)-1H-1,2,3-triazol-1-yl)methyl)pyridin-3-yl)-1,3,4-oxadiazole]
HDAC6 selectivity (fold) (human recombinant HDAC6; HDAC1 IC50 / HDAC6 IC50): 965 fold | IC50 (human recombinant HDAC6; [3]): 51.8 nM | IC50 (human recombinant HDAC1; [4]): > 50000 nM

FC(F)c1nnc(-c2ccc(Cn3cc(-c4ccc(N5CCOCC5)cc4)nn3)nc2)o1 [Compound 4105, 4-(4-(1-((5-(5-(difluoromethyl)-1,3,4-oxadiazol-2-yl)pyridin-2-yl)methyl)-1H-1,2,3-triazol-4-yl)phenyl)morpholin]
HDAC6 selectivity (fold) (human recombinant HDAC6; HDAC1 IC50 / HDAC6 IC50): 979 fold | IC50 (human recombinant HDAC6; [3]): 34.7 nM | IC50 (human recombinant HDAC1; [4]): 34000 nM

Fc1cc(-c2nnc(C(F)F)o2)cnc1Cn1cc(-c2ccccc2)nn1 [Compound 17347, 2-(difluoromethyl)-5-(5-fluoro-6-((4-phenyl-1H-1,2,3-triazol-1-yl)methyl)pyridin-3-yl)-1,3,4-oxadiazole]
HDAC6 selectivity (fold) (human recombinant HDAC6; HDAC6 over HDAC1): 628 fold | IC50 (human recombinant HDAC6; [1]): 79.6 nM | IC50 (human recombinant HDAC1; [2]): > 50000 nM

FC(F)c1nnc(-c2ccc(Cn3cc(-c4ccc(CNC5CCC5)cc4)nn3)cc2)o1 [Compound 4555, N-(4-(1-(4-(5-(difluoromethyl)-1,3,4-oxadiazol-2-yl)benzyl)-1H-1,2,3-triazol-4-yl)benzyl)cyclobutanamine]
HDAC6 selectivity (fold) (human recombinant HDAC6; HDAC6 over HDAC1): 2100 fold | IC50 (human recombinant HDAC6; [1]): 23.8 nM | IC50 (human recombinant HDAC1; [2]): > 50000 nM

CCN1CC(c2cccc(-c3cn(Cc4ccc(-c5nnc(C(F)F)o5)cc4F)nn3)c2)C1 [Compound 4506, 2-(difluoromethyl)-5-(4-((4-(3-(1-ethylazetidin-3-yl)phenyl)-1H-1,2,3-triazol-1-yl)methyl)-3-fluorophenyl)-1,3,4-oxadiazole]
HDAC6 selectivity (fold) (human recombinant HDAC6; HDAC6 over HDAC1): 2262 fold | IC50 (human recombinant HDAC6; [1]): 22.1 nM | IC50 (human recombinant HDAC1; [2]): > 50000 nM

FC(F)c1nnc(-c2ccc(Cn3cc(-c4cccc(C5CN(C6CCC6)C5)c4)nn3)nc2)o1 [Compound 4504, 2-(6-((4-(3-(1-cyclobutylazetidin-3-yl)phenyl)-1H-1,2,3-triazol-1-yl)methyl)pyridin-3-yl)-5-(difluoromethyl)-1,3,4-oxadiazole]
HDAC6 selectivity (fold) (human recombinant HDAC6; HDAC6 over HDAC1): 3703 fold | IC50 (human recombinant HDAC6; [1]): 13.5 nM | IC50 (human recombinant HDAC1; [2]): > 50000 nM

O=S1(=O)CCN(Cc2cccc(-c3cn(Cc4ccc(-c5nnc(C(F)F)o5)cc4)nn3)c2)CC1 [Compound 4412, 4-(3-(1-(4-(5-(difluoromethyl)-1,3,4-oxadiazol-2-yl)benzyl)-1H-1,2,3-triazol-4-yl)benzyl)thiomorpholine 1,1-dioxide]
HDAC6 selectivity (fold) (human recombinant HDAC6; HDAC1 IC50 / HDAC6 IC50): 432 fold | IC50 (human recombinant HDAC6; [3]): 116 nM | IC50 (human recombinant HDAC1; [4]): > 50000 nM

CC(C)N1Cc2cccc(-c3cn(Cc4ccc(-c5nnc(C(F)F)o5)cc4)nn3)c2C1 [Compound 4531, 2-(difluoromethyl)-5-(4-((4-(2-isopropylisoindolin-4-yl)-1H-1,2,3-triazol-1-yl)methyl)phenyl)-1,3,4-oxadiazole]
HDAC6 selectivity (fold) (human recombinant HDAC6; HDAC6 over HDAC1): 412 fold | IC50 (human recombinant HDAC6; [1]): 121 nM | IC50 (human recombinant HDAC1; [2]): > 50000 nM

FC(F)c1nnc(-c2ccc(Cn3cc(-c4ccnc5[nH]ccc45)nn3)cc2)o1 [Compound 4527, 2-(4-((4-(1H-pyrrolo[2,3-b]pyridin-4-yl)-1H-1,2,3-triazol-1-yl)methyl)phenyl)-5-(difluoromethyl)-1,3,4-oxadiazole]
HDAC6 selectivity (fold) (human recombinant HDAC6; HDAC6 over HDAC1): 4310 fold | IC50 (human recombinant HDAC6; [1]): 11.6 nM | IC50 (human recombinant HDAC1; [2]): > 50000 nM

CN(C)Cc1c(-c2ccccc2)nnn1Cc1ccc(-c2nnc(C(F)F)o2)cn1 [Compound 4490, 1-(1-((5-(5-(difluoromethyl)-1,3,4-oxadiazol-2-yl)pyridin-2-yl)methyl)-4-phenyl-1H-1,2,3-triazol-5-yl)-N,N-dimethylmethanamine]
HDAC6 selectivity (fold) (human recombinant HDAC6; HDAC1 IC50 / HDAC6 IC50): 571 fold | IC50 (human recombinant HDAC6; [3]): 87.5 nM | IC50 (human recombinant HDAC1; [4]): > 50000 nM

CCN1CCN(Cc2ccccc2-c2cn(Cc3ccc(-c4nnc(C(F)F)o4)cc3F)nn2)CC1 [Compound 4588, 2-(difluoromethyl)-5-(4-((4-(2-((4-ethylpiperazin-1-yl)methyl)phenyl)-1H-1,2,3-triazol-1-yl)methyl)-3-fluorophenyl)-1,3,4-oxadiazole]
HDAC6 selectivity (fold) (human recombinant HDAC6; HDAC6 over HDAC1): 229 fold | IC50 (human recombinant HDAC6; [1]): 218 nM | IC50 (human recombinant HDAC1; [2]): > 50000 nM

FC(F)c1nnc(-c2ccc(Cn3cc(-c4cccc5c4CN(C4CCC4)C5)nn3)cc2)o1 [Compound 4532, 2-(4-((4-(2-cyclobutylisoindolin-4-yl)-1H-1,2,3-triazol-1-yl)methyl)phenyl)-5-(difluoromethyl)-1,3,4-oxadiazole]
HDAC6 selectivity (fold) (human recombinant HDAC6; HDAC6 over HDAC1): 327 fold | IC50 (human recombinant HDAC6; [1]): 153 nM | IC50 (human recombinant HDAC1; [2]): > 50000 nM

CN1CCc2cc(-c3cn(Cc4ccc(-c5nnc(C(F)F)o5)cc4F)nn3)sc2C1 [Compound 4500, 2-(difluoromethyl)-5-(3-fluoro-4-((4-(6-methyl-4,5,6,7-tetrahydrothieno[2,3-c]pyridin-2-yl)-1H-1,2,3-triazol-1-yl)methyl)phenyl)-1,3,4-oxadiazole]
HDAC6 selectivity (fold) (human recombinant HDAC6; HDAC6 over HDAC1): 413 fold | IC50 (human recombinant HDAC6; [1]): 121 nM | IC50 (human recombinant HDAC1; [2]): > 50000 nM

C[C@@H]1CN(c2cccc(-c3cn(Cc4ncc(-c5nnc(C(F)F)o5)cc4F)nn3)c2)C[C@H](C)N1 [Compound 18893, 2-(difluoromethyl)-5-(6-((4-(3-((3R,5S)-3,5-dimethylpiperazin-1-yl)phenyl)-1H-1,2,3-triazol-1-yl)methyl)-5-fluoropyridin-3-yl)-1,3,4-oxadiazole]
HDAC6 selectivity (fold) (human recombinant HDAC6; HDAC6 over HDAC1): 388 fold | IC50 (human recombinant HDAC6; [1]): 129 nM | IC50 (human recombinant HDAC1; [2]): > 50000 nM

Fc1cc(-c2nnc(C(F)F)o2)ccc1Cn1cc(-c2ccc(CN3CCC3)c(Cl)c2)nn1 [Compound 18712]
HDAC6 selectivity (fold) (human recombinant HDAC6; HDAC6 over HDAC1): 1146 fold | IC50 (human recombinant HDAC6; [1]): 43.6 nM | IC50 (human recombinant HDAC1; [2]): > 50000 nM

Source: US20230257372A1 (CHONG KUN DANG PHARMACEUTICAL CORP., priority 2020, published 2023)
